Source: patent US20150141386A1, “USE OF VITAMIN K TO DECREASE ALLOGRAFT FAILURE AND PATIENT MORTALITY AFTER ORGAN TRANSPLANTATION” (VITAK B.V., priority 2012, published 2015)

What was measured:
Matrix Gla-Protein (MGP) = assay: Circulating desphospho-uncarboxylated MGP (dp-ucMGP) / MGP carboxylation in vitamin K intervention studies; assay type: in vivo, human; details: for circulating dp-ucMGP at start: baseline
Method: (§1) Blood was drawn after an 8-12 h overnight fasting period to prepare serum and citrated plasma, which were subsampled and frozen at −80° C. until use. Renal allograft function was assessed as the 24 h urinary creatinine clearance (CrCl), i.e. the 24 h urinary creatinine excretion divided by the serum creatinine concentration. Vitamin K status was assessed from plasma dp-ucMGP concentrations as described elsewhere {Cranenburg EC et al. Thromb. Haemostas. 104 (2010) 811-822} and from ucOC using a commercial dual antibody ELISA test kit (Takara Shuzo Co. Ltd., Otsu, Shiga, Japan). An in-house control serum pool was run on all ELISA plates. The primary end-points of this study were death-censored graft failure and change in kidney function. Death-censored graft failure was defined as return to dialysis therapy or re-transplant. Change in kidney function was defined as estimated GFR (eGFR) at baseline subtracted by eGFR at the last follow-up visit, divided by time from baseline to follow-up and expressed in millilitres per minute per 1.73 m^2 per year. […] Calculating a slope instead of a change in eGFR therefore will underestimate a patient's true kidney function decrease. For patients who died with a functioning graft (n=78), eGFR at follow-up was defined as kidney function at the last visit to the outpatient clinic before death, and for patients with graft failure (n=42), eGFR at follow-up was defined as the eGFR at the last visit to the outpatient clinic before starting dialysis therapy or re-transplant. There was no loss to follow-up.
(§2) Recommended doses of vitamin K for treating transplant patients. […] On top of this, chronic kidney disease (CKD) patients are known to have much more pronounced vitamin K insufficiency than healthy subjects {Schlieper G et al. J. Am. Soc. Nephrol., 22 (2011) 387-395}. Therefore, the estimated range for optimal effect is dependent on the disease state and may be higher than estimated from literature data. […] This was shown in archived samples from a vitamin K1-intervention study initially described in 2003 {Braam L A et al. Am. J. Sports Med. 31 (2003) 889-895}. […] This was shown in archived samples from a vitamin K1-intervention study initially described in 2003 {Braam L A et al. Calcif. Tissue Int. 73 (2003) 21-26}. During the first 6 months of the study, circulating ucOC in the vitamin K-treated group decreased from 4.2 ng/mL to 0.8 ng/mL, whereas in the control samples a non-significant increase was observed from 4.4 ng/mL to 4.7 ng/mL. […] 109 (2007) 3279-3283}.
(§3) the optimal dose for Gla-protein carboxylation in subjects free from CKD lies between 5 and 2,000 μg/day, preferably between 50 and 1,000 μg/day, more preferably between 100 and 1,000 μg/day and most preferably between 200 and 500 μg/day for subjects with baseline levels in the normal range. […] The decreases of circulating dp-ucMGP and ucOC are shown in FIG. 10. • Lower doses were tested in a number of small studies with a significant effect at 200 μg/day and a half-maximum effect at 500 μg/day.

osteocalcin (OC) [1] = details: cited from earlier work
circulating OC and MGP = assay: Gla-protein carboxylation (circulating OC and MGP) after vitamin K supplementation; assay type: in vivo, human
Text: as §2, §3
the optimal dose for Gla-protein carboxylation in subjects free from kidney disease lies between 5 and 3,000 μg/day, preferably between 50 and 2,000 μg/day, more preferably between 100 and 1,000 μg/day and most preferably between 200 and 500 μg/day for subjects with baseline levels in the normal range. […] Treatment should be guided by the circulating levels of dp-ucMGP, ucOC, or uncarboxylated species of any other suitable Gla-protein. • MK-n: The long-chain menaquinones are selected from the group menaquinone-7, menaquinone-8, menaquinone-9, and menaquinone-10. The long half-life times of the long-chain menaquinones make that the optimal dose for Gla-protein carboxylation is lower than for vitamin K1 {Schurgers L J et al. Biochim. Biophys. Acta 1570 (2002) 27-32}. […] A clear dose-dependent increase of MGP carboxylation was found, for instance, between 45 μg/day and 360 μg/day {Westenfeld R et al. Am. J. Kidney Dis. 59 (2012) 186-195}.

[2] = in vivo; cited from earlier work
osteocalcin (OC) [3] = assay: Circulating uncarboxylated osteocalcin (ucOC) / OC carboxylation in vitamin K intervention studies; assay type: in vivo, human
Method: as §1
as §2, with “3279-3283}. […]” for “3279-3283}.”

Structure (SMILES)	circulating dp-ucMGP after treatment (Matrix Gla-Protein (MGP); K1 1,000 μg/day (FIG. 8))	circulating dp-ucMGP at start (Matrix Gla-Protein (MGP); K1 1,000 μg/day group)	circulating dp-ucMGP after treatment (Matrix Gla-Protein (MGP); K1 10,000 μg/day (FIG. 7))	circulating dp-ucMGP at start (Matrix Gla-Protein (MGP); K1 10,000 μg/day group)	effect on the carboxylation degree of circulating OC (osteocalcin (OC) [1]; K1 140 μg/day)	OC and MGP carboxylation (circulating OC and MGP; K1 1,000 μg/day, healthy volunteers)	carboxylation of circulating OC and MGP (circulating OC and MGP; K1 10,000 μg/day, archived samples of vitamin K1-intervention study)	circulating half-life time [2]	circulating ucOC at start (osteocalcin (OC) [3]; K1 1,000 μg/day group, baseline)	circulating ucOC after treatment (osteocalcin (OC) [3]; K1 1,000 μg/day, first 6 months of the study)	circulating ucOC level at start (osteocalcin (OC) [3]; K1 10,000 μg/day group, baseline of 2-year study)	circulating ucOC level after treatment (osteocalcin (OC) [3]; K1 10,000 μg/day, first 6 months of 2-year study, background = buffer values)	circulating dp-ucMGP change (Matrix Gla-Protein (MGP); MK-4 45,000 μg/day (FIG. 9))	carboxylation of circulating OC (osteocalcin (OC) [1]; MK-4 45,000 μg/day taken for 6 months)	dose with half-maximum effect on Gla-protein carboxylation (circulating OC and MGP; lower doses, small studies)	dose with significant effect on Gla-protein carboxylation (circulating OC and MGP; lower doses, small studies)
CC1=C(C/C=C(\C)CCC[C@H](C)CCC[C@H](C)CCCC(C)C)C(=O)c2ccccc2C1=O [K1, phylloquinone]	112 pM	389 pM	23 pM	182 pM	less pronounced but statistically significant effect	substantial increase	more than 95%	around 1.5 h	4.2 ng/mL	0.8 ng/mL	4.6 ng/mL	not different from background	–	–	–	–
CC(C)=CCC/C(C)=C/CC/C(C)=C/CC/C(C)=C/CC1=C(C)C(=O)c2ccccc2C1=O [MK-4, menaquinone-4]	–	–	–	–	–	–	–	1 h	–	–	–	–	decrease	complete carboxylation	500 µg/day	200 µg/day
